Measurements reported in patent publication US12595504B2, “Methods for screening compounds for bactericidal activity and for determining the sensitivity of bacterial samples” (priority 2020, dated 2026).
Like-named read-outs stand apart in the source and are kept apart here.

How the values were obtained:
[1] = Comparative stability assay of classical and thermostable luciferase at 37° C.; assay type: physicochemical
Procedure: For performing this assay, a classical luciferase (firefly luciferase; Molecular Probes ATP determination kit A22066) and the thermostable luciferase (Checklite kit, Kikkoman, AAE43251.1) were used according to the manufacturer's instructions. Both types of luciferases were added to rich LB or minimal MOPS-Glucose media pre-heated at 37° C. At various times during incubation, aliquots of the solutions were collected, supplemented with reagents and mixed with 0.8 pmole of ATP for bioluminescence readings. Immediately after mixing, bioluminescence measurements were performed at 37° C. using an InfinitePro200, TECAN plate reader in a total volume of 12 μL on a 384-wells microtiter plate (Greiner Bio-one, 784076).

Escherichia coli MG1655 = experiment: Antibiotic MIC determination (serial twofold dilutions, OD600 during 17 hours at 37° C.); assay type: cell-based
[2] = system: E. coli MG1655 reporter cells; assay type: cell-based, Escherichia coli
E. coli MG1655 KanR = experiment: ATP leakage assay on aminoglycoside resistant strain (KanR, APH(3′)-IIa); assay type: cell-based, Escherichia coli; conditions: MOPS minimal medium (glucose 0.4%), increasing concentrations, 37° C.
Procedure: FIG. 7. Absence of ATP leakage with an aminoglycoside resistant strain E. coli MG1655. The resistant strain (MG KanR) contains the gene for expression of the aminoglycoside O-phosphotransferase APH(3′)-IIa. ATP release of resistant (KanR) or non-resistant (WT) MG 1655 E. coli cells exposed in MOPS minimal medium (glucose 0.4%) to increasing concentrations of neomycin at 37° C. ATP leakage was absent for the resistant strain (KanR).
The classical luciferase was from Molecular Probes (ATP Determination Kit (A22066)). The thermostable luciferase was from “CheckLite AT100” (kikkoman). The Luciferin-luciferase reagents were prepared following manufacturer instructions. Bacteria from exponentially growing cultures (OD600=0.3) were added to each well (60 μl/well) of a black 96-microtiter plate (Greiner Bio-one, 655076) and 20 μl of the luciferin-luciferase reagent solution was added. The microtiter plate was incubated 5 min at 37° C. for reaction with the luciferase to eliminate traces of extracellular ATP. Then 40 μl of antibiotic solution (3 times concentrated) prepared in the culture medium were added. Bioluminescence of each well was monitored for 4 hours under shaking (218 rpm) and at 28 or 37° C., depending on the experiments (see legends of Figures). The reagent stability in presence or absence of antibiotics was checked in control experiments without bacteria but with 4 pmoles of ATP. […]

E. coli = experiment: Survival assay (kill curves, CFU) with neomycin; assay type: cell-based, Escherichia coli; conditions: different neomycin concentrations, LB
S. aureus USA300 = experiment: CFU kill assay of stationary phase cells with or without centrifugation; assay type: cell-based, Staphylococcus aureus
Procedure: FIG. 4. A. Centrifugation with change for fresh medium prior to aminoglycoside exposure stimulates drug bactericidal effect. S. aureus USA300 in TSB medium with 0.25% glucose was incubated until stationary phase has been reached at 37° C. Cells were either centrifuged at 12 000 rpm for 5 minutes (+) or placed at 37° C. without centrifugation (≠). After centrifugation, pellets were washed with fresh broth and placed at 37° C. Depending on the test, different concentrations of neomycin were added. S. aureus USA300 samples that were centrifuged and washed with fresh broth are more sensitive to neomycin. For instance, bacterial CFU go below the detection threshold (10^2 CFU/ml) at 2 hours for 8 mM and 2 mM concentrations while it takes 2 more hours for the 0.5 mM concentration. Bars represent the standard error from the mean (SEM) calculated on GraphPad Prism version 8.4.1. B. S. aureus USA300 in TSB medium with 0.25% glucose was incubated until stationary phase has been reached at 37° C. Cells were either centrifuged at 12 000 rpm for 5 minutes or placed at 37° C. without centrifugation. After centrifugation, pellets were washed with fresh broth and placed at 37° C. A volume of 100 μL of fresh media with 4 mM of neomycin was added to all the tubes (final concentration at 2 mM), centrifuged or not, 5, 15, 30, 60 and 120 minutes post-centrifugation. Samples were incubated for a total of 2 hours with the neomycin before being washed three times with PBS 1×, diluted and incubated on tryptic soy agar. The next day, colony forming units/mL were counted. Bars represent the standard deviation (SD) calculated on GraphPad Prism version 8.4.3.

[3] = system: biofilm of the multidrug-resistant Staphylococcus aureus USA300 strain; experiment: Drug dependent ATP release from biofilm; assay type: cell-based; conditions: washed biofilm, 37° C., FIG. 20b
Procedure: FIG. 20. Drug dependent ATP release from biofilm of the multidrug-resistant Staphylococcus aureus USA300 strain. A, Control experiment at 37° C. in absence of antibiotic. Biofilms were washed with MOPS medium prior to be exposed to neomycin in the bioluminescent assay. Biofilms were obtained as described in the Examples section and washed twice with MOPS-G medium. Wash solutions were tested for the presence of ATP with the bioluminescence assay. […] Washed biofilms were then tested for ATP release. Signals were present in the first 40 min. This ATP release probably originates from shaking of the biofilm in the plate reader with physical perturbation of the biofilm. B, Biofilm response at 37° C. to drug exposure.
Biofilms were produced by following standard protocols. Briefly, S. aureus USA300 was incubated overnight in tryptic-soy broth (with 0.25% glucose) at 37° C. with 180 rpm agitation. Wells of a FLUOTRAC™ microplate (sterilized beforehand) were then filled with 150 μl of the inoculated broth previously diluted to obtain average concentrations between 10^5-10^6 CFU/ml. The microplate was covered and incubated at 37° C. for 18 hours. Biofilms were then washed twice with 150 μl of MOPS. 80 μl of the wash solution was not discarded and placed in an adjacent well to observe the quantity of ATP it contained. […]

Substance | Loss of activity ([1]; LB medium, after 12 minutes of incubation) [%] | Loss of activity ([1]; minimal MOPS-G medium, in 30 minutes) | MIC in LB (Escherichia coli MG1655; LB medium, OD600 0.15 final, 37° C.) [µg/mL] | MIC in MOPS glucose 0.4% (Escherichia coli MG1655; MOPS minimal medium glucose 0.4%, 37° C.) [µg/mL] | Experimental MIC (Escherichia coli MG1655; Mueller Hinton media, EUCAST inoculum) [µg/mL] | Shape of ATP release trace ([2]; LB medium, 37° C., FIG. 8) | Shape of ATP release trace ([2]; MOPS minimal medium (glucose 0.4%), FIG. 11) | Lag time before ATP ([2]; antibiotic at 5.6 μg/mL, LB, 37° C.) [min] | Lag time before ATP ([2]; antibiotic at 11.25 μg/mL, LB, 37° C.) [min] | Lag time before ATP ([2]; antibiotic at 22.8 μg/mL, LB, 37° C.) [min] | Lag time before ATP ([2]; antibiotic at 45.0 μg/mL, LB, 37° C.) [min] | Lag time before ATP ([2]; antibiotic at 91.0 μg/mL, LB, 37° C.) [min] | Lag before ATP release (shortest, incompressible value) ([2]; highest concentrations tested, LB, 37° C.) | ATP leakage (E. coli MG1655 KanR) | Number of colonies forming units (CFU) during the first 90 minutes (E. coli) | Time at which bacterial CFU go below the detection threshold (10^2 CFU/ml) (S. aureus USA300; 0.5 mM, samples centrifuged and washed, compared with 8 mM and 2 mM) [more hours] | Time at which bacterial CFU go below the detection threshold (10^2 CFU/ml) (S. aureus USA300; 2 mM, samples centrifuged and washed with fresh broth) [hours] | Time at which bacterial CFU go below the detection threshold (10^2 CFU/ml) (S. aureus USA300; 8 mM, samples centrifuged and washed with fresh broth) [hours] | ATP release from biofilm [3]
classical firefly luciferase: firefly luciferase; Molecular Probes ATP determination kit A22066, not thermostable | 70 | more than 80% |  |  |  |  |  |  |  |  |  |  |  |  |  |  |  |  | 
Neomycin |  |  | 22.8 | 0.8 | 3.12 | bi-phasic | monophasic | 48.6 | 42.4 | 16.3 | 12.8 | 9.4 | about 9.4 min | absent | remained constant | 2 | 2 | 2 | triggered ATP release
